Source: ChEMBL document CHEMBL3431459, “Roche carnitine palmitoyltransferase modulator screening data (supplementary data associated with the publication CHEMBL2216752)”
Converted amounts (≈) assume the structure as drawn.

Legend:
[1] = target: T1, Carnitine O-palmitoyltransferase 2, mitochondrial (Homo sapiens, UniProt P23786); assay: (§1) SUPPLEMENTARY: Inhibition of Carnitine palmitoyltransferase 2
T1 sequence (P23786 whole entry): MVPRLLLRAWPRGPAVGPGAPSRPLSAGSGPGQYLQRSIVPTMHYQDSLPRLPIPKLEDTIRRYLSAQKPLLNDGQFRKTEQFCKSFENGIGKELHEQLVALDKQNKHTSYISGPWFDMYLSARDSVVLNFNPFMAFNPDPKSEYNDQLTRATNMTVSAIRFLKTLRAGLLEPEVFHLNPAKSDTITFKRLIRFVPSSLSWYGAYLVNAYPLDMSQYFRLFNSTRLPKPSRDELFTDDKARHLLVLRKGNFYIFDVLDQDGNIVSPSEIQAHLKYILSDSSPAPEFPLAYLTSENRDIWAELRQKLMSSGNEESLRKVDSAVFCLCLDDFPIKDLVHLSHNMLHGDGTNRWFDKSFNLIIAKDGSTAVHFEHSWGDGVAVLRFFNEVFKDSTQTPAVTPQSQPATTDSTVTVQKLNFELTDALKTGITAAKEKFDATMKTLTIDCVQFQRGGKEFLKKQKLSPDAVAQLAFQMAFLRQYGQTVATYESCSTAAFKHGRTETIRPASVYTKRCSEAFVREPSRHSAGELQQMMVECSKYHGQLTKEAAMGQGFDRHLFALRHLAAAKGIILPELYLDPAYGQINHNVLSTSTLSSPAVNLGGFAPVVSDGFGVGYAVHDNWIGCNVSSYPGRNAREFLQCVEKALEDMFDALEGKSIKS

[2] = target: T2, Carnitine O-palmitoyltransferase 2, mitochondrial (Rattus norvegicus, UniProt P18886); assay: as §1
T2 sequence (P18886 whole entry): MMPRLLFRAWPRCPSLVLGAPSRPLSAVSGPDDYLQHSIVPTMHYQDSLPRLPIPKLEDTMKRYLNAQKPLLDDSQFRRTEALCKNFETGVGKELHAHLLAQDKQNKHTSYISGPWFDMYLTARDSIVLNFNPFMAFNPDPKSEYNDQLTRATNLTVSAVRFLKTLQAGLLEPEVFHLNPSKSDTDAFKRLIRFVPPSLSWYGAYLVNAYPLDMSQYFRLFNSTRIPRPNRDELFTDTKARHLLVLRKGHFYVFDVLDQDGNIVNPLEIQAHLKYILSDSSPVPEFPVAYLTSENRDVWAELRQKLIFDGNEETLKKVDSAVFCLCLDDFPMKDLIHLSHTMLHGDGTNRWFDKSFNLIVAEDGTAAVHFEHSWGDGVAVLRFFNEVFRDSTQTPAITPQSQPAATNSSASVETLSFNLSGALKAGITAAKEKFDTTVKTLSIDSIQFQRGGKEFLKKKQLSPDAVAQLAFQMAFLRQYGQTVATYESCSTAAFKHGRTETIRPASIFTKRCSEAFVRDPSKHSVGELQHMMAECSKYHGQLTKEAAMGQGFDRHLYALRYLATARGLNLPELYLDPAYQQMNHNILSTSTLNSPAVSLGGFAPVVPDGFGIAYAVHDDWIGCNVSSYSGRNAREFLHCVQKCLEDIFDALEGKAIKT

[3] = target: T3, Carnitine O-palmitoyltransferase 1, muscle isoform (Homo sapiens, UniProt Q92523); assay: SUPPLEMENTARY: Inhibition of Carnitine palmitoyltransferase 1, muscle isoform; parameters: species or system Muscle tissue
T3 sequence (Q92523 whole entry): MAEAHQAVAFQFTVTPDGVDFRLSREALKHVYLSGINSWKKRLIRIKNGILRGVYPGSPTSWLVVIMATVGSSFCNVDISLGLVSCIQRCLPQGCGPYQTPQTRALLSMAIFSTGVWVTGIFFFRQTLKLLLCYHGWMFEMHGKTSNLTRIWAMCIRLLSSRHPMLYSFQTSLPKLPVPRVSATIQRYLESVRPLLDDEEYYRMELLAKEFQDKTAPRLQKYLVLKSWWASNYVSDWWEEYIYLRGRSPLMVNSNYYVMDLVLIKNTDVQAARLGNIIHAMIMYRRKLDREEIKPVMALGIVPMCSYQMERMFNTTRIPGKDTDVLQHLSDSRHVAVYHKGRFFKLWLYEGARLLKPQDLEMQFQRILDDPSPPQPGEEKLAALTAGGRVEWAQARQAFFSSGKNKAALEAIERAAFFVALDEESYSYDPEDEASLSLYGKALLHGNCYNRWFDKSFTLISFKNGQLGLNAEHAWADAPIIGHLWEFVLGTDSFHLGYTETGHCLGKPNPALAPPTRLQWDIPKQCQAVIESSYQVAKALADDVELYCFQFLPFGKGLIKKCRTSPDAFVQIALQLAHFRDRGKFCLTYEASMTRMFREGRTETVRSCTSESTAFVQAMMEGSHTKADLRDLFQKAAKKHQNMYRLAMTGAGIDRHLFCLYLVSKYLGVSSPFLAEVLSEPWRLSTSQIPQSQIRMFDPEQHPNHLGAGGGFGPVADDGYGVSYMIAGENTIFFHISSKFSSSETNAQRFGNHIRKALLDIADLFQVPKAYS

[4] = SUPPLEMENTARY: PAMPA permeability assay; type: physicochemical; conditions: read-out: Permeability
[5] = SUPPLEMENTARY: Lyophilisation Solubility Assay (LYSA); type: physicochemical; conditions: read-out: Kinetic_solubility
[6] = target: T4, Carnitine O-palmitoyltransferase 1, liver isoform (Rattus norvegicus, UniProt P32198); assay: (§2) SUPPLEMENTARY: Inhibition of Carnitine palmitoyltransferase 1, liver isoform
T4 sequence (P32198 whole entry): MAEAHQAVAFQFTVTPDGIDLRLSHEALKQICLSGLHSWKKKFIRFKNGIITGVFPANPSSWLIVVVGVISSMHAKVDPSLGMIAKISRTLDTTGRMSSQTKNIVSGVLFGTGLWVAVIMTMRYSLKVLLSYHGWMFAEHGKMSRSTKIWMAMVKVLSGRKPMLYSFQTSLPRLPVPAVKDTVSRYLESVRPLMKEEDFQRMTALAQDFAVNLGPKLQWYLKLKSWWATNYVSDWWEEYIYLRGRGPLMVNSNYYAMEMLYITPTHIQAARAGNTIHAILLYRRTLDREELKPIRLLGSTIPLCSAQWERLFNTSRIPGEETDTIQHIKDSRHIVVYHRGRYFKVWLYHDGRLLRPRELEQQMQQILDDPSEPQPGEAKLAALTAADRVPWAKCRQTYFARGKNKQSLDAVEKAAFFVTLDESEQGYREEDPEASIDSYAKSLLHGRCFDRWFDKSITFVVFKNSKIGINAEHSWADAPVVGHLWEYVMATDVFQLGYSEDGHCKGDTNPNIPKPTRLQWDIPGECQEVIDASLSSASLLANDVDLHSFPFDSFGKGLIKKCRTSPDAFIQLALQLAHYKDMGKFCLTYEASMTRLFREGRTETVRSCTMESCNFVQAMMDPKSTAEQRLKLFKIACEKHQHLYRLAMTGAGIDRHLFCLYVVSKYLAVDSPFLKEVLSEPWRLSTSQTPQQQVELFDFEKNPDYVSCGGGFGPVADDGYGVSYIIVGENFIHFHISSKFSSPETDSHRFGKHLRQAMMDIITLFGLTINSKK

[7] = target: T5, Carnitine O-palmitoyltransferase 1, liver isoform (Homo sapiens, UniProt P50416); assay: as §2
T5 sequence (P50416 whole entry): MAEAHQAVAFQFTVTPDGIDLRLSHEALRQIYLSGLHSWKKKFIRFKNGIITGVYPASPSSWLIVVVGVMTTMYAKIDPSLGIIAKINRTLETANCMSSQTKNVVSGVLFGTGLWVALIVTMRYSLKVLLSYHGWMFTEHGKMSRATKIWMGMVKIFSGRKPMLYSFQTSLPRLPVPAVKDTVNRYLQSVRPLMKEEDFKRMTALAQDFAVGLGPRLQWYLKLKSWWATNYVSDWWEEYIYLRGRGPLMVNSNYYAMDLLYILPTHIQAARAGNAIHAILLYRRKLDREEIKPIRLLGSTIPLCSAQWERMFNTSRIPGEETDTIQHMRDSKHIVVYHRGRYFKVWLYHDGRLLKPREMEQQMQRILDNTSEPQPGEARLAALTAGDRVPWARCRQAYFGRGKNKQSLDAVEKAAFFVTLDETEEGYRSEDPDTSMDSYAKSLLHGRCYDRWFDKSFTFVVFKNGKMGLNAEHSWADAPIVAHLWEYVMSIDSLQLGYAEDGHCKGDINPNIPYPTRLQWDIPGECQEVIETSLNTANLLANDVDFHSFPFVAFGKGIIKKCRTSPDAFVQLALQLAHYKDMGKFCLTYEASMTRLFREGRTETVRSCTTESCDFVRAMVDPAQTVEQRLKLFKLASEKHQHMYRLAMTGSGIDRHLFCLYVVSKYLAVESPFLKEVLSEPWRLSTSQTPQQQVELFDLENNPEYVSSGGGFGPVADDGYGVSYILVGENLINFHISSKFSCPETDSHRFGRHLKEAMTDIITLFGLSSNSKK

[8] = SUPPLEMENTARY: Lipophilicity (log D) Determination by high-throughput shake-flask; type: physicochemical; conditions: octanol/water

IC50 [1] [µM] | IC50 [2] [µM] | IC50 [3] [µM] | Papp [4] [nm/s] | solubility kinetic [5] [mg/mL] | IC50 [6] [µM] | IC50 [7] [µM] | logD [8] | SMILES
14.4 | > 100 | 63.8 | 35.9 | 0.051 (≈ 123 µM) | 0.129 | 0.117 | 2.61 | Nc1ncc(Cl)c(-c2nc([C@H]3CCCCN3C(=O)COc3ccccc3)no2)n1
58.9 | 93.5 | > 100 | 27.7 | 0.312 (≈ 745 µM) | 0.306 | 0.105 | 1.09 | O=C1Cc2cc(-c3noc([C@H]4CNCCN4C(=O)COc4ccccc4)n3)ccc2N1
> 100 | > 100 | > 100 | 28 | 0.019 (≈ 46.9 µM) | 0.339 | 0.0893 | 2.62 | O=C(COc1ccccc1)N1CCOC[C@@H]1c1nc(-c2ccc3[nH]cnc3c2)no1
62.3 | > 100 | > 100 | 43.9 | < 0.001 | 0.376 | 0.223 | > 3 | O=C(COc1ccccc1)N1CCCC[C@@H]1c1nc(-c2ccc([N+](=O)[O-])s2)no1
1.95 | 5.64 | 7.33 | 28.1 | 0.02 (≈ 40.9 µM) | 0.043 | 0.0822 | 1.48 | O=C(O)c1ccc(NC(=O)c2ccc3c(c2)N(S(=O)(=O)c2cccc(Cl)c2)CCS3)cc1
1.58 | 2.62 | 2.68 | 17.9 | 0.125 (≈ 259 µM) | 0.026 | 0.051 | 1.75 | Cc1cc(C)cc(S(=O)(=O)N2CCSc3ccc(C(=O)Nc4ccc(C(=O)O)cc4)cc32)c1
> 100 | > 100 | 1.13 | 34 | 0.102 (≈ 184 µM) | 0.0859 | 0.0963 | 2.65 | CCN(c1cc(C(=O)Nc2nc(CC(=O)O)cs2)cc2c1OCO2)S(=O)(=O)c1cc(Cl)ccc1OC
36.7 | 24.1 | > 100 | 26 | 0.029 (≈ 64.8 µM) | 0.692 | 0.0721 | 3.32 | CC(C)C(=O)Nc1cccc(-c2n[nH]c([C@H]3CCCCN3C(=O)COc3ccccc3)n2)c1
> 100 | > 100 | 0.535 | 9.6 | 0.418 (≈ 836 µM) | 0.0197 | 0.0468 | 1.21 | COc1ccc(Cl)cc1CN1C(=O)C(C)(C)c2ccc(C(=O)Nc3nc(CC(=O)O)cs3)cc21
> 100 | > 100 | 0.955 | 34.5 | 0.517 (≈ 922 µM) | 0.184 | 0.191 | 0.87 | CCCN(c1cc(C(=O)Nc2ccc(CC(=O)O)cc2)cc2c1OCO2)S(=O)(=O)c1cc(Cl)ccc1OC
2.53 | 55.6 | 17.2 | 1.2 | 0.034 (≈ 63.6 µM) | 0.0368 | 0.0941 | -0.34 | COc1ccc(Cl)cc1S(=O)(=O)N1CC[S+]([O-])c2ccc(C(=O)Nc3ccc(C(=O)O)cc3)cc21 (configuration not stated)
> 100 | > 100 | 0.685 | 31.2 | 0.005 (≈ 8.95 µM) | 0.0372 | 0.0688 | 2.27 | COc1ccc(Cl)cc1S(=O)(=O)N1CCOc2c(Cl)cc(C(=O)Nc3ncc(CC(=O)O)s3)cc21
> 100 | > 100 | 2.21 | 22.1 | 0.093 (≈ 194 µM) | 0.174 | 0.237 | 0.11 | COc1ccc(C)cc1S(=O)(=O)N1CCc2ccc(C(=O)Nc3ccc(CC(=O)O)cc3)cc21

SMILES | IC50 [1] [µM] | IC50 [2] [µM] | IC50 [3] [µM] | Papp [4] [nm/s] | solubility kinetic [5] [mg/mL] | IC50 [6] [µM] | IC50 [7] [µM] | logD [8]
NC(=O)c1ccc(-c2csc([C@H]3CCCCN3C(=O)COc3ccccc3)n2)cc1 | 18.9 | 75.2 | > 100 | 54.8 | 0.043 (≈ 102 µM) | 0.484 | 0.239 | 2.26
